Experiment: Aqueous solubility of the salts determined by HPLC
Format: physicochemical
Conditions: for pH: pH of Table 2 for the aqueous solubility samples (water, 2 h at 20° C.); for solubility at 2 h: thermodynamic from solid, read-out: Solubility in H2O
Description: To determine the aqueous solubility of the salts, suspensions of the salts were shaken 2 h at 20° C. and 400 rpm. Afterwards the mixtures were filtered (0.1 μm centrifuge filter) and the concentrations were determined by HPLC.

[1] = suspension in water shaken 2 h at 20° C. and 400 rpm, filtered (0.1 μm), concentration by HPLC

Molecule | solubility in water (in words) (general statement, no conditions given) | pH | solubility at 2 h [1] [µg/mL] | Solubility in H2O [1] [µg/mL]
CNc1ncc(-c2ccc3c(=O)c(C(=O)O)cn(C4CC4)c3c2C)cc1C [Free drug, 1-Cyclopropyl-8-methyl-7-[5-methyl-6-(methylamino)-3-pyridinyl]-4-oxo-1,4-dihydro-3-quinolinecarboxylic acid] | low solubility in water | 8.5 | 19 | 
CNc1ncc(-c2ccc3c(=O)c(C(=O)O)cn(C4CC4)c3c2C)cc1C.O=C(O)C(O)C(O)C(=O)O [L-Tartrate, 1-Cyclopropyl-8-methyl-7-[5-methyl-6-(methylamino)-3-pyridinyl]-4-oxo-1,4-dihydro-3-quinolinecarboxylic acid L-tartrate salt] |  | 2.5 | 4600 | 
CNc1ncc(-c2ccc3c(=O)c(C(=O)O)cn(C4CC4)c3c2C)cc1C.Cl.O [Hydrochloride monohydrate, 1-Cyclopropyl-8-methyl-7-[5-methyl-6-(methylamino)-3-pyridinyl]-4-oxo-1,4-dihydro-3-quinolinecarboxylic acid hydrochloride monohydrate salt] |  | 2.8 | 2000 | 
CNc1ncc(-c2ccc3c(=O)c(C(=O)O)cn(C4CC4)c3c2C)cc1C.O=C(O)/C=C\C(=O)O [Maleate, 1-Cyclopropyl-8-methyl-7-[5-methyl-6-(methylamino)-3-pyridinyl]-4-oxo-1,4-dihydro-3-quinolinecarboxylic acid maleate salt] |  | 5.3 | 149 | 
CNc1ncc(-c2ccc3c(=O)c(C(=O)[O-])cn(C4CC4)c3c2C)cc1C.[Na+] [Sodium, 1-Cyclopropyl-8-methyl-7-[5-methyl-6-(methylamino)-3-pyridinyl]-4-oxo-1,4-dihydro-3-quinolinecarboxylic acid sodium salt] |  | 9.0 | 159000 | 
CNc1ncc(-c2ccc3c(=O)c(C(=O)[O-])cn(C4CC4)c3c2C)cc1C.[K+] [Potassium, 1-Cyclopropyl-8-methyl-7-[5-methyl-6-(methylamino)-3-pyridinyl]-4-oxo-1,4-dihydro-3-quinolinecarboxylic acid potassium salt] |  | 9.8 | 109000 | 
CNc1ncc(-c2ccc3c(=O)c(C(=O)O)cn(C4CC4)c3c2C)cc1C.O=C(O)CC(O)(CC(=O)O)C(=O)O [Citrate, 1-Cyclopropyl-8-methyl-7-[5-methyl-6-(methylamino)-3-pyridinyl]-4-oxo-1,4-dihydro-3-quinolinecarboxylic acid citrate salt] |  | 2.7 | 5220 | 
1-Cyclopropyl-8-methyl-7-[5-methyl-6-(methylamino)-3-pyridinyl]-4-oxo-1,4-dihydro-3-quinolinecarboxylic acid hemi-fumarate salt |  | 4.8 |  | 89.7
CNc1ncc(-c2ccc3c(=O)c(C(=O)O)cn(C4CC4)c3c2C)cc1C.CS(=O)(=O)O [Mesylate, 1-Cyclopropyl-8-methyl-7-[5-methyl-6-(methylamino)-3-pyridinyl]-4-oxo-1,4-dihydro-3-quinolinecarboxylic acid mesylate salt] |  | 2.4 | 113000 | 

Reference: US8507684B2, “1-cyclopropyl-8-methyl-7-[5-methyl-6-(methylamino)-3-pyridinyl]-4-oxo-1,4-dihydro-3-quinolinecarboxylic acid salts” (Ferrer Internacional S.A., priority 2010, dated 2013)
